Source: US20180311342A1, “IMMUNOSTIMULATING AGENT” (AJINOMOTO CO., INC., priority 2017, published 2018)
Counter-ions that a name gives are not always drawn.

Test system: anti-OVA-specific IgG1 and IgG2a subclass antibody production
Assay: Evaluation test of adjuvant activity (overall conclusion from anti-OVA IgG1 and IgG2a production)
Assay type: in vivo, BALB/c mice
Conditions: compound 0.256 μmol in 5% αCD-added saline with OVA 5 μg, dorsal-subcutaneous
Method: 8-Week-old female BALB/c mice were divided into groups (N=6), and each group was primarily immunized by dorsal-subcutaneous administration of (1) ovalbumin (OVA) (5 μg) dissolved in saline as an antigen (OVA single administration group), (2) OVA 5 μg and Addavax™ (mixed with saline at 1:1) dissolved in saline (Addavax™ administration group) as positive control adjuvant, (3) OVA 5 μg and SZ137 0.256 μmol dissolved or dispersed in 5% α-cyclodextrin (hereinafter to be simply referred to as αCD)-added saline (SZ137 administration group), (4) OVA (5 μg) and SZ138 (0.256 μmol) dissolved or dispersed in 5% αCD-added saline (SZ138 administration group), (5) OVA (5 μg) and SZ142 (0.256 μmol) dissolved or dispersed in 5% αCD-added saline (SZ142 administration group), (6) OVA (5 μg) and SZ144 (0.256 μmol) dissolved or dispersed in 5% αCD-added saline (SZ144 administration group), (7) OVA (5 μg) and SZ145 (0.256 μmol) dissolved or dispersed in 5% αCD-added saline (SZ145 administration group), (8) OVA (5 μg) and SZ146 (0.256 μmol) dissolved or dispersed in 5% αCD-added saline (SZ146 administration group), (9) OVA (5 μg) and SZ147 (0.256 μmol) dissolved or dispersed in 5% αCD-added saline (SZ147 administration group), (10) OVA (5 μg) and SZ148 (0.256 μmol) dissolved or dispersed in 5% αCD-added saline (SZ148 administration group), each per mouse. Two week later, the secondary immunization was carried out by dorsal-subcutaneous administration of solutions or dispersions similar to those of the above-mentioned (1)-(10) again. […]
To a 96 well plate was added 5 μg/ml OVA at 100 µl/well, and the mixture was incubated at 4° C. overnight. After incubation, the mixture was washed three times with 200 μl of PBS-T (PBS (phosphate buffered saline)+0.05% (v/v) Tween 20) per well, and blocked with 100 μl of 5% FCS (fetal calf serum)/PBS solution per well at room temperature for 1-2 hr. Thereafter, the mixture was washed three times with PBS-T (200 μl/well), a diluted serum sample (100 l/well) or the same amount of 5% FCS/PBS solution as a control was added, and the mixture was incubated at 37° C. for 1 hr. To calculate concentration of the antibody, the standard of an anti-OVA-specific IgG1 subclass antibody diluted with 2% FCS/PBS solution was added at 100 ng/ml, 50 ng/ml, 25 ng/ml, 12.5 ng/ml, 6.25 ng/ml, 3.125 ng/ml, 1.56 ng/ml, 0.781 ng/ml, 0.391 ng/ml, 0.195 ng/ml, 0.098 ng/ml, 0 ng/ml, per 1 well. When an anti-OVA-specific IgG2a subclass antibody was measured, the standard of an anti-OVA-specific IgG2a subclass antibody was added at 50 ng/ml, 25 ng/ml, 12.5 ng/ml, 6.25 ng/ml, 3.125 ng/ml, 1.56 ng/ml, 0.781 ng/ml, 0.391 ng/ml, 0.195 ng/ml, 0.098 ng/ml, 0.049 ng/ml, 0 ng/ml, per 1 well. Thereafter, similar to the samples, the mixture was washed five times with PBS-T (200 μl/well), a diluted biotinylated anti-mouse IgG1 antibody and IgG2a antibody were added (100 μl/well), and the mixture was incubated at 37° C. for 45 min. Thereafter, the mixture was washed five times with PBS-T (200 μl/well), a diluted anti-biotin-HRP antibody was added (100 μl/well), and the mixture was incubated at 37° C. for another 30 min. Thereafter, the mixture was washed five times with PBS-T (200 μl/well), TMB substrate solution was added (100 μl/well), and the mixture was incubated at room temperature for 10-15 min. Thereafter, a reaction quenching liquid (2N sulfuric acid solution) was added (50 l/well) to discontinue a color developing reaction, and the absorbance (OD Value=450 nm) was measured by a microplate reader. A standard curve was drawn from the measured OD values, and the concentration was calculated. […]

[1] = conclusion from IgG1/IgG2a after primary immunization
[2] = conclusion from IgG1/IgG2a after secondary immunization

Row | SMILES | adjuvant activity [1] | adjuvant activity [2]
1 | CCCCCCCCCCCCCCCCCC(=O)NCC(C)(C)C(=O)NCCCCCCCCCCCC [SZ204, N-[3-(dodecylamino)-2,2-dimethyl-3-oxo-propyl]octadecanamide] | have an adjuvant activity | have an adjuvant activity
2 | CCCCCCCCCCCCCCCCCCCC(=O)N[C@@H](CCCNC(=N)N)C(=O)NCCCCCCCC.Cl [SZ183, N-[(1S)-4-guanidino-1-(octylcarbamoyl)butyl]icosanamide hydrochloride] | have an adjuvant activity | have an adjuvant activity
3 | CCCCCCCCCCCCNC(=O)[C@H](CCCNC(=N)N)N(CCCCCCC)CCCCCCC [SZ207, (2S)-2-(diheptylamino)-N-dodecyl-5-guanidino-pentanamide dihydrochloride] | have an adjuvant activity | have an adjuvant activity
4 | CCCCCCCCCCCCCCCCCC(=O)N[C@@H](CCCCN)C(=O)NCCCCCCCCCCCC.Cl [SZ185, N-[(1S)-5-amino-1-(dodecylcarbamoyl)pentyl]octadecanamide hydrochloride] | have an adjuvant activity | have an adjuvant activity
5 | CCCCCCCCCCCCNC(=O)[C@H](CCCNC(=N)N)NC(=O)OCCCCCCCCCCCC.Cl [SZ187, dodecyl N-[(1S)-1-(dodecylcarbamoyl)-4-guanidino-butyl]carbamate hydrochloride] | have an adjuvant activity | have an adjuvant activity
6 | CCCCCCCCCCCCCCCCNC(=O)N[C@@H](CCCCN)C(=O)NCCCCCCCCCCCC.Cl [SZ214, (2S)-6-amino-N-dodecyl-2-(hexadecylcarbamoylamino)hexanamide hydrochloride] | have an adjuvant activity | have an adjuvant activity
7 | CCCCCCCCCCCCCCCCCCCCCC(=O)N[C@@H](CCCCNC(=N)N)C(=O)NCCCCCCCCCCCC.Cl [SZ166, N-[(1S)-1-(dodecylcarbamoyl)-5-guanidino-pentyl]docosanamide hydrochloride] | – | have an adjuvant activity
8 | CCCCCCCCCCCCCCCCCC(=O)N[C@@H](CCCCNC(=N)N)C(=O)NCCCCCCCCCCCC.Cl [SZ205, N-[(1S)-1-(dodecylcarbamoyl)-5-guanidino-pentyl]octadecanamide hydrochloride] | have an adjuvant activity | have an adjuvant activity
9 | CCCCCCCCCCCCCCCCNC(=O)N[C@@H](CCCNC(=N)N)C(=O)NCCCCCCCC.Cl [SZ210, (2S)-5-guanidino-2-(hexadecylcarbamoylamino)-N-octyl-pentanamide hydrochloride] | have an adjuvant activity | have an adjuvant activity
10 | CCCCCCCCCCCCCCCCCCCCCC(=O)N[C@@H](CCCCN)C(=O)NCCCCCCCCCCCC.Cl [SZ160, N-[(1S)-5-amino-1-(dodecylcarbamoyl)pentyl]docosanamide hydrochloride] | – | have an adjuvant activity
11 | CCCCCCCCCCCCCCCC(=O)N[C@@H](CCCCN)C(=O)NCCCCCCCCCCCC.Cl [SZ153, N-[(1S)-5-amino-1-(dodecylcarbamoyl)pentyl]hexadecanamide hydrochloride] | – | have an adjuvant activity
12 | CCCCCCCCCCCCCCCCOC(=O)N[C@@H](CCCCN)C(=O)NCCCCCCCCCCCC.Cl [SZ189, hexadecyl N-[(1S)-5-amino-1-(dodecylcarbamoyl)pentyl]carbamate hydrochloride] | have an adjuvant activity | have an adjuvant activity
13 | CCCCCCCCCCCCCCCC(=O)N[C@H](CCCCN)C(=O)NCCCCCCCCCCCC.Cl [SZ194, N-[(1R)-5-amino-1-(dodecylcarbamoyl)pentyl]hexadecanamide hydrochloride] | have an adjuvant activity | have an adjuvant activity
14 | CCCCCCCCCCCCCCCCCCCC(=O)N[C@@H](CCCNC(=N)N)C(=O)NCCCCCCCCCCCC.Cl [SZ180, N-[(1S)-1-(dodecylcarbamoyl)-4-guanidino-butyl]icosanamide hydrochloride] | have an adjuvant activity | have an adjuvant activity
15 | CCCCCCCCCCCCCCCCCC(=O)N[C@@H](CCCCN)C(=O)NCCCCCCCC.Cl [SZ184, N-[(1S)-5-amino-1-(octylcarbamoyl)pentyl]octadecanamide hydrochloride] | have an adjuvant activity | have an adjuvant activity
16 | CCCCCCCCCCCCCCCC(=O)N[C@@H](CC(C)C)C(=O)NCCCCCCCC [SZ199, N-[(1S)-3-methyl-1-(octylcarbamoyl)butyl]hexadecanamide] | have an adjuvant activity | have an adjuvant activity
17 | CCCCCCCCCCCCCCCCOC(=O)N[C@@H](CCCNC(=N)N)C(=O)NCCCCCCCCCCCC.Cl [SZ150, Hexadecyl N-[(1S)-1-(dodecylcarbamoyl)-4-guanidino-butyl]carbamate hydrochloride] | – | have an adjuvant activity
18 | CCCCCCCCCCCCCCCCCCCCCC(=O)N[C@@H](CCCCNC(C)=O)C(=O)NCCCCCCCCCCCC [SZ167, N-[(1S)-5-acetamide-1-(dodecylcarbamoyl)pentyl]docosanamide] | – | have an adjuvant activity
19 | CCCCCCCCCCCCCCCCCCCCCC(=O)N[C@@H](CCCC)C(=O)NCCCCCCCCCCCC [SZ155, N-[(1S)-1-(dodecylcarbamoyl)pentyl]docosanamide] | – | have an adjuvant activity
20 | CCCCCCCCCCCCCCCCNC(=O)N[C@@H](CC(C)C)C(=O)NCCCCCCCC [SZ201, (2S)-2-(hexadecylcarbamoylamino)-4-methyl-N-octyl-pentanamide] | have an adjuvant activity | have an adjuvant activity
21 | CCCCCCCCCCCCCCCCCCCCCC(=O)N[C@@H](CC(C)C)C(=O)NCCCCCCCC [SZ198, N-[(1S)-3-methyl-1-(octylcarbamoyl)butyl]docosanamide] | have an adjuvant activity | have an adjuvant activity
22 | CCCCCCCCCCCCCCCCNC(=O)N[C@H](CCCNC(=N)N)C(=O)NCCCCCCCCCCCC.Cl [SZ193, (2R)—N-dodecyl-5-guanidino-2-(hexadecylcarbamoylamino)pentanamide hydrochloride] | have an adjuvant activity | have an adjuvant activity
23 | CCCCCCCCCCCCCCCCCCCCCC(=O)N1CCC(C(=O)NCCCCCCCCCCCC)CC1 [SZ156, 1-docosanoyl-N-dodecyl-piperidine-4-carboxamide] | – | have an adjuvant activity
24 | CCCCCCCCCCCCCCCCOC(=O)N[C@@H](CCCCN)C(=O)NCCCCCCCC.Cl [SZ188, hexadecyl N-[(1S)-5-amino-1-(octylcarbamoyl)pentyl]carbamate hydrochloride] | have an adjuvant activity | have an adjuvant activity
